# In the supplement of paper PMC10331698:
# ± gives the standard deviation of the averaged measurements.
# Assays:
# Experiment in all cases: level (log10 ratio to DMSO vehicle control); higher = higher biomarker level / cell amount than vehicle control
# [1] = compound: OCCCCC(F)(F)C(F)(F)C(F)(F)C(F)(F)F [4:4 Fluorotelomer alcohol]; details: in DMSO
# Description: (§1)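 BioMAP Diversity Plus panel of 12 human primary cell co-culture systems (3C, 4H, LPS, SAg, BT, BF4T, BE3C, CASM3C, HDF3CGF, KF3CT, MyoF, Mphg). Compounds were added 1 h before stimulation and left for 24 h (MyoF 48 h; BT 72 h for soluble read-outs or 6 d for IgG). Biomarkers were read by ELISA, cytotoxicity by SRB, PBMC viability and proliferation by Alamar Blue. Each well value was divided by the mean of 8 DMSO control wells on the same plate and log10 transformed; duplicate blinded samples were tested at 4 concentrations.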
# [2] = compound: C=CC(=O)OCCC(F)(F)C(F)(F)C(F)(F)C(F)(F)C(F)(F)C(F)(F)C(F)(F)C(F)(F)F [8:2 Fluorotelomer acrylate]; details: in DMSO
# Description: as §1
# [3] = compound: O=S(=O)(OCC(F)(F)F)C(F)(F)C(F)(F)C(F)(F)C(F)(F)F [2,2,2-Trifluoroethyl perfluorobutanesulfonate]; details: in DMSO
# Description: as §1
# [4] = compound: C=C(C)C(=O)OCC(F)(F)C(F)(F)C(F)(F)F [2,2,3,3,4,4,4-Heptafluorobutyl methacrylate]; details: in DMSO
# Description: as §1
# [5] = compound: OCCC(F)(F)C(F)(F)C(F)(F)C(F)(F)C(F)(F)C(F)(F)C(F)(F)C(F)(F)F [8:2 Fluorotelomer alcohol]; details: 6700 nM; in DMSO
# Description: as §1
# [6] = compound: O=C(Cl)C(F)(F)C(F)(F)C(F)(F)C(=O)Cl [Hexafluoroglutaryl chloride]; details: in DMSO
# Description: as §1
# [7] = compound: O=P(O)(O)CCC(F)(F)C(F)(F)C(F)(F)C(F)(F)C(F)(F)C(F)(F)F [2-(Perfluorohexyl)ethylphosphonic acid]; details: in DMSO
# Description: as §1
Test System,level (log10) ([1]; 6700 nM),level (log10) ([1]; 20000 nM),level (log10) ([1]; 60000 nM),level (log10) ([2]; 6700 nM),level (log10) ([2]; 20000 nM),level (log10) ([2]; 60000 nM),level (log10) ([3]; 6700 nM),level (log10) ([3]; 20000 nM),level (log10) ([3]; 60000 nM),level (log10) ([4]; 6700 nM),level (log10) ([4]; 20000 nM),level (log10) ([4]; 60000 nM),level (log10) [5],level (log10) ([6]; 6700 nM),level (log10) ([6]; 20000 nM),level (log10) ([6]; 60000 nM),level (log10) ([7]; 6700 nM),level (log10) ([7]; 20000 nM),level (log10) ([7]; 60000 nM)
BF4T:CCL2/MCP-1,0.0115 ± 0.044,0.007 ± 0.024,0.048 ± 0.099,-0.007 ± 0.038,-0.0265 ± 0.015,-0.026 ± 0.041,0.024 ± 0.0028,0.0125 ± 0.005,0.017 ± 0.021,0.026 ± 0.0042,0.0355 ± 0.0021,0.0345 ± 0.022,-0.0135 ± 0.0035,-0.0225 ± 0.00071,-0.009 ± 0.0028,-0.0185 ± 0.005,0.001 ± 0.0028,0.0015 ± 0.023,-0.009 ± 0.0028
LPS:CXCL8/IL-8,0.0295 ± 0.005,0.0205 ± 0.033,0.027 ± 0.041,-0.0055 ± 0.0092,-0.036 ± 0.04,-0.0085 ± 0.018,-0.004 ± 0.034,-0.002 ± 0.0099,-0.0205 ± 0.026,-0.001 ± 0.016,0.0055 ± 0.012,0.0145 ± 0.0092,-0.0375 ± 0.029,-0.0295 ± 0.00071,0 ± 0.037,-0.0035 ± 0.043,-0.023 ± 0.024,-0.0235 ± 0.0021,0.0375 ± 0.054
4H:CD87/uPAR,-0.0385 ± 0.029,-0.044 ± 0.021,-0.0195 ± 0.013,-0.045 ± 0.051,-0.03 ± 0.011,-0.064 ± 0.069,0.0005 ± 0.011,0.001 ± 0.0099,-0.0095 ± 0.039,0.035 ± 0.03,0.012 ± 0.0014,0.055 ± 0.048,-0.069 ± 0.025,0.0165 ± 0.0035,0.0115 ± 0.03,0.004 ± 0.018,-0.0345 ± 0.018,-0.0165 ± 0.015,-0.0495 ± 0.011
BF4T:uPA,-0.0125 ± 0.0078,-0.015 ± 0.0028,0.0105 ± 0.04,-0.0405 ± 0.039,-0.033 ± 0.025,-0.023 ± 0.031,-0.0085 ± 0.018,-0.008 ± 0.035,-0.015 ± 0.023,-0.01,-0.017 ± 0.017,-0.007 ± 0.0085,-0.047 ± 0.0057,-0.02 ± 0.048,-0.004 ± 0.028,-0.008 ± 0.013,-0.0445 ± 0.037,-0.0475 ± 0.028,-0.0465 ± 0.013
3C:Proliferation,-0.018 ± 0.031,0.0115 ± 0.011,-0.009 ± 0.054,-0.035 ± 0.037,-0.009 ± 0.048,-0.0155 ± 0.005,0.002 ± 0.062,-0.025 ± 0.04,-0.0475 ± 0.028,-0.0315 ± 0.044,-0.0325 ± 0.033,-0.049 ± 0.02,-0.0465 ± 0.005,-0.0045 ± 0.026,0.006 ± 0.018,-0.0345 ± 0.036,-0.066 ± 0.057,-0.035 ± 0.017,-0.101 ± 0.081
BF4T:CXCL8/IL-8,-0.013 ± 0.021,0.018 ± 0.0057,0.0185 ± 0.005,-0.0395 ± 0.021,-0.017 ± 0.028,-0.004 ± 0.017,0.0295 ± 0.0064,0.017,0.0385 ± 0.044,0.044 ± 0.047,0.0155 ± 0.073,0.037 ± 0.037,-0.0095 ± 0.0092,0.045 ± 0.086,0.037 ± 0.072,0.048 ± 0.089,-0.0405 ± 0.00071,-0.0595 ± 0.0064,-0.034 ± 0.0085
LPS:sTNF-alpha,0.0195 ± 0.11,0.0205 ± 0.12,0.0155 ± 0.14,-0.0245 ± 0.025,-0.029 ± 0.027,-0.0175 ± 0.012,-0.0075 ± 0.043,-0.0745 ± 0.076,-0.225 ± 0.018,0.005 ± 0.0057,0.018 ± 0.052,0.0415 ± 0.0092,0.0175 ± 0.03,0.046 ± 0.023,0.033 ± 0.0085,0.0465 ± 0.012,0.008 ± 0.0085,0.0105 ± 0.026,0.007 ± 0.0042
